Experimental data published in US20220184222A1, “BICYCLE TOXIN CONJUGATES AND USES THEREOF” (BicycleTx Limited, priority 2019, published 2022).
Where “and” joins values, the source holds several entries; their conditions need not be identical. Identical values can stand only once. Entries after “also recorded” stand apart in the source; their conditions may differ. Starred links: 1 amine or outer side, 2 acyl side, 3 side chain; linkers in the order of their positions; H or OH if unused. Non-standard residues stand in square brackets, D forms with d. Residues, ends and D or L forms follow the SMILES beside them. *: point of attachment. Dolaproine = CO[C@@H]([C@@H]1CCCN1)[C@@H](C)C(=O)O; Dil = CC[C@H](C)[C@H](NC)[C@@H](CC(=O)O)OC; PABC = O=C(OCc1ccc(N[*:1])cc1)[*:2]; X1 = O=C(CCCC(=O)*)ON1C(=O)CCC1=O; X2 = C[C@@H](N*)[C@@H](O)c1ccccc1; Cit = NC(=O)NCCC[C@H](N)C(=O)O; NMeV = CN[C@H](C(=O)O)C(C)C

System: PC-3 xenograft
Assay: In vivo efficacy in PC-3 xenograft, female BALB/c nude mice (Example 2)
Set-up: species or system Mus Musculus
Procedure: The objective of the research was to evaluate the in vivo anti-tumor efficacy of BT5528 and BCY10188 in treatment of PC-3 xenograft model in BALB/c nude mice.
Each mouse was inoculated subcutaneously at the right flank with PC-3 tumor cells ([…]) in 0.2 ml of PBS for tumor development. 60 animals were randomized when the average tumor volume reached 464 mm^3. The test article administration and the animal numbers in each group were shown in the experimental design table.
1) 0.1 mg/mL solution (with 50 mM Acetate 10% sucrose pH 5 buffer) was prepared before the operation. 2) The syringe loaded with dosing solution was fixed on the Syringe Pump Machine, then a needle was bound to the pipe jointed with the syringe. 3) The injection volume (10 ml/kg, calculated based on the bodyweight), injection time (1 h for this study), and infusion rate was set to the Pump, then a quick running was conducted to check the working condition of the whole system. 4) The mouse was fixed comfortably, then the operator injected the syringe needle into the caudal vein, and fixed the mouse tail as well as the needle firmly and stably(no need anesthesia for less than 1 h) 5) Then the infusion was started, and the operator kept monitoring the dosing condition till the end.
1) 0.130 mg/mL solution (with 50 mM Acetate 10% sucrose pH 5 buffer) was prepared before the operation. 2) The pump was fully filled with the dosing solution (˜200 μl, see the hand book of the Alzet pump 2001D). 3) The animal in group 12 was anesthetized with 80 mg/kg pentobarbital sodium, and the pump was embedded under the skin of left side of mouse. 4) 26 h later, the animals were anesthetized with pentobarbital sodium, and the pump was taken out. (The infusion rate is not stable at the first 1-3 h, thus the pump was taken out at 26 h instead of 24 h to ensure that all solution was pumped-out).
The major endpoint was to see if the tumor growth could be delayed or mice could be cured. Tumor volume was measured 3 times per week in two dimensions using a caliper, and the volume was expressed in mm^3 using the formula: V=0.5 a×b^2 where a and b are the long and short diameters of the tumor, respectively. The tumor size was then used for calculations of T/C value. The T/C value (in percent) is an indication of antitumor effectiveness; T and C are the mean volumes of the treated and control groups, respectively, on a given day.
TGI was calculated for each group using the formula: TGI (%)=[1−(Ti−T0)/(Vi−V0)]×100; Ti is the average tumor volume of a treatment group on a given day, T0 is the average tumor volume of the treatment group on the day of treatment start, Vi is the average tumor volume of the vehicle control group on the same day with Ti, and V0 is the average tumor volume of the vehicle group on the day of treatment start.
Tumor growth inhibition rate of BT5528 and BCY10188 in the PC-3 xenograft model was calculated based on tumor volume measurements on day 17 after the start of treatment.

[1] = 1 mpk iv 1 h infusion qw*2 weeks, day 17
[2] = 1 mpk sc 24 h minipump qw*2 weeks, day 17

Structure (SMILES): CC[C@H](C)[C@@H]([C@@H](CC(=O)N1CCC[C@H]1[C@H](OC)[C@@H](C)C(=O)N[C@H](C)[C@@H](O)c1ccccc1)OC)N(C)C(=O)[C@@H](NC(=O)[C@H](C(C)C)N(C)C(=O)OCc1ccc(NC(=O)[C@H](CCCNC(N)=O)NC(=O)[C@@H](NC(=O)CCCC(=O)ON2C(=O)CCC2=O)C(C)C)cc1)C(C)C [BT5528] (X1-V[Cit][PABC][NMeV]V[Dil][Dolaproine]-X2)
- tumor relapse after ceasing the treatment (1 mg/kg qw*2 weeks via intravenous bolus, intravenous infusion or subcutaneous ALZET pump): obvious relapse 2 weeks later after ceasing the treatment
- efficacy across dosing paradigms (1 mg/kg, iv bolus (QW×2 and QW×4), 1 h iv infusion (QW×2), 24 h subcutaneous osmotic pump (QW×2)): equivalent efficacy with a wide range of dosing paradigms; also recorded: comparable anti-tumor activity
- Tumor volume (0.11 mpk iv qw*4 weeks, day 0): 463 mm^3
- Tumor volume (0.11 mpk iv qw*4 weeks, day 2): 634 mm^3
- Tumor volume (0.11 mpk iv qw*4 weeks, day 4): 725 mm^3
- Tumor volume (0.11 mpk iv qw*4 weeks, day 6): 861 mm^3
- Tumor volume (0.11 mpk iv qw*4 weeks, day 8): 1172 mm^3
- Tumor volume (0.11 mpk iv qw*4 weeks, day 10): 1247 mm^3
- Tumor volume (0.11 mpk iv qw*4 weeks, day 13): 1333 mm^3
- Tumor volume (0.11 mpk iv qw*4 weeks, day 15): 1568 mm^3
- T/C (0.11 mpk iv qw*4 weeks, day 17): 88.1%
- TGI (0.11 mpk iv qw*4 weeks, day 17): 15.3%
- Tumor volume (0.11 mpk iv qw*4 weeks, day 17): 1780 mm^3 and 1780 ± 116 mm^3
- Tumor volume (0.33 mpk iv qw*4 weeks, day 0): 463 mm^3
- Tumor volume (0.33 mpk iv qw*4 weeks, day 2): 597 mm^3
- Tumor volume (0.33 mpk iv qw*4 weeks, day 4): 530 mm^3
- Tumor volume (0.33 mpk iv qw*4 weeks, day 6): 525 mm^3
- Tumor volume (0.33 mpk iv qw*4 weeks, day 8): 584 mm^3
- Tumor volume (0.33 mpk iv qw*4 weeks, day 10): 536 mm^3
- Tumor volume (0.33 mpk iv qw*4 weeks, day 13): 493 mm^3
- Tumor volume (0.33 mpk iv qw*4 weeks, day 15): 544 mm^3
- T/C (0.33 mpk iv qw*4 weeks, day 17): 23.9%
- TGI (0.33 mpk iv qw*4 weeks, day 17): 98.8%
- Tumor volume (0.33 mpk iv qw*4 weeks, day 17): 482 mm^3 and 482 ± 22 mm^3
- Tumor volume (1 mpk iv 1 h infusion qw*2 weeks, day 0): 463 mm^3
- Tumor volume (1 mpk iv 1 h infusion qw*2 weeks, day 2): 538 mm^3
- Tumor volume (1 mpk iv 1 h infusion qw*2 weeks, day 4): 539 mm^3
- Tumor volume (1 mpk iv 1 h infusion qw*2 weeks, day 6): 467 mm^3
- Tumor volume (1 mpk iv 1 h infusion qw*2 weeks, day 8): 399 mm^3
- Tumor volume (1 mpk iv 1 h infusion qw*2 weeks, day 10): 330 mm^3
- Tumor volume (1 mpk iv 1 h infusion qw*2 weeks, day 13): 260 mm^3
- Tumor volume (1 mpk iv 1 h infusion qw*2 weeks, day 15): 213 mm^3
- T/C [1]: 10.3%
- TGI [1]: 116.4%
- Tumor volume [1]: 209 mm^3 and 209 ± 27 mm^3
- Tumor volume (1 mpk iv qw*2 weeks, day 0): 464 mm^3
- Tumor volume (1 mpk iv qw*2 weeks, day 2): 572 mm^3
- Tumor volume (1 mpk iv qw*2 weeks, day 4): 529 mm^3
- Tumor volume (1 mpk iv qw*2 weeks, day 6): 496 mm^3
- Tumor volume (1 mpk iv qw*2 weeks, day 8): 427 mm^3
- Tumor volume (1 mpk iv qw*2 weeks, day 10): 361 mm^3
- Tumor volume (1 mpk iv qw*2 weeks, day 13): 269 mm^3
- Tumor volume (1 mpk iv qw*2 weeks, day 15): 239 mm^3
- T/C (1 mpk iv qw*2 weeks, day 17): 10.6%
- TGI (1 mpk iv qw*2 weeks, day 17): 116.0%
- Tumor volume (1 mpk iv qw*2 weeks, day 17): 214 mm^3 and 214 ± 33 mm^3
- Tumor volume (1 mpk iv qw*4 weeks, day 0): 463 mm^3
- Tumor volume (1 mpk iv qw*4 weeks, day 2): 610 mm^3
- Tumor volume (1 mpk iv qw*4 weeks, day 4): 579 mm^3
- Tumor volume (1 mpk iv qw*4 weeks, day 6): 538 mm^3
- Tumor volume (1 mpk iv qw*4 weeks, day 8): 476 mm^3
- Tumor volume (1 mpk iv qw*4 weeks, day 10): 408 mm^3
- Tumor volume (1 mpk iv qw*4 weeks, day 13): 341 mm^3
- Tumor volume (1 mpk iv qw*4 weeks, day 15): 299 mm^3
- T/C (1 mpk iv qw*4 weeks, day 17): 14.5%
- TGI (1 mpk iv qw*4 weeks, day 17): 111%
- Tumor volume (1 mpk iv qw*4 weeks, day 17): 282 mm^3 and 293 mm^3 and 293 ± 66 mm^3
- Tumor volume (1 mpk sc 24 h minipump qw*2 weeks, day 0): 464 mm^3
- Tumor volume (1 mpk sc 24 h minipump qw*2 weeks, day 2): 517 mm^3
- Tumor volume (1 mpk sc 24 h minipump qw*2 weeks, day 4): 64 mm^3
- Tumor volume (1 mpk sc 24 h minipump qw*2 weeks, day 6): 480 mm^3
- Tumor volume (1 mpk sc 24 h minipump qw*2 weeks, day 8): 443 mm^3
- Tumor volume (1 mpk sc 24 h minipump qw*2 weeks, day 10): 393 mm^3
- Tumor volume (1 mpk sc 24 h minipump qw*2 weeks, day 13): 298 mm^3
- Tumor volume (1 mpk sc 24 h minipump qw*2 weeks, day 15): 249 mm^3
- T/C [2]: 11.1%
- TGI [2]: 115.5%
- Tumor volume [2]: 223 mm^3 and 223 ± 46 mm^3
- Tumor volume (3 mpk iv qw*4 weeks, day 0): 464 mm^3
- Tumor volume (3 mpk iv qw*4 weeks, day 2): 566 mm^3
- Tumor volume (3 mpk iv qw*4 weeks, day 4): 526 mm^3
- Tumor volume (3 mpk iv qw*4 weeks, day 6): 462 mm^3
- Tumor volume (3 mpk iv qw*4 weeks, day 8): 377 mm^3
- Tumor volume (3 mpk iv qw*4 weeks, day 10): 320 mm^3
- Tumor volume (3 mpk iv qw*4 weeks, day 13): 249 mm^3
- Tumor volume (3 mpk iv qw*4 weeks, day 15): 243 mm^3
- T/C (3 mpk iv qw*4 weeks, day 17): 10.2%
- TGI (3 mpk iv qw*4 weeks, day 17): 116.7%
- Tumor volume (3 mpk iv qw*4 weeks, day 17): 205 mm^3 and 205 ± 14 mm^3
